According to BigSolDB 2.1:

O=[N+]([O-])c1cc([N+](=O)[O-])c(O)c(Cl)c1O
Details	solubility (mole fraction)
in acetic acid, 299.35 K	0.00649
in acetic acid, 305.55 K	0.00872
in acetic acid, 311.45 K	0.0112
in acetic acid, 315.05 K	0.013
in acetic acid, 318.75 K	0.0149
in acetic acid, 321.85 K	0.0167
in acetic acid, 323.95 K	0.0179
in acetic acid, 327.65 K	0.0202
in acetic acid, 334.65 K	0.0248
in acetic acid, 336.45 K	0.026
in acetic acid, 340.45 K	0.0289
in acetic acid, 343.15 K	0.0308
in ethanol, 299.35 K	0.00297
in ethanol, 303.15 K	0.00355
in ethanol, 307.35 K	0.00428
in ethanol, 310.75 K	0.00493
in ethanol, 314.25 K	0.00568
in ethanol, 317.65 K	0.00648
in ethanol, 320.15 K	0.00711
in ethanol, 326.35 K	0.00882
in ethanol, 329.85 K	0.00989
in ethanol, 332.65 K	0.0108
in ethanol, 335.45 K	0.0118
in ethanol, 339.15 K	0.0131
in ethanol, 343.75 K	0.0148
in ethyl acetate, 298.75 K	0.0449
in ethyl acetate, 302.65 K	0.0474
in ethyl acetate, 306.25 K	0.0498
in ethyl acetate, 309.95 K	0.0525
in ethyl acetate, 313.85 K	0.0555
in ethyl acetate, 318.15 K	0.0589
in ethyl acetate, 323.15 K	0.0633
in ethyl acetate, 327.25 K	0.067
in ethyl acetate, 331.85 K	0.0716
in ethyl acetate, 333.35 K	0.0731
in ethyl acetate, 337.15 K	0.0772
in ethyl acetate, 342.55 K	0.0834
in ethyl acetate, 344.95 K	0.0863
in methanol, 299.75 K	0.00172
in methanol, 305.95 K	0.00239
in methanol, 308.75 K	0.00277
in methanol, 311.25 K	0.00316
in methanol, 313.65 K	0.00359
in methanol, 315.95 K	0.00406
in methanol, 318.15 K	0.00456
in methanol, 320.75 K	0.00524
in methanol, 323.35 K	0.006
in methanol, 327.05 K	0.00731
in methanol, 330.15 K	0.0086
in water, 298.85 K	3.49e-05
in water, 301.15 K	3.65e-05
in water, 303.65 K	4.23e-05
in water, 306.35 K	4.59e-05
in water, 309.05 K	4.86e-05
in water, 311.35 K	5.44e-05
in water, 313.35 K	5.67e-05
in water, 315.75 K	6.29e-05
in water, 318.15 K	6.8e-05
in water, 320.65 K	7.62e-05
in water, 323.15 K	8.17e-05
in water, 325.85 K	9.12e-05
in water, 327.45 K	9.79e-05
in water, 330.15 K	0.000106
in water, 332.25 K	0.000113
in water, 336.35 K	0.00013
in water, 339.55 K	0.000142
in water, 341.95 K	0.000152
